Tests used:
[1] = Investigation in the Liquidskin model (L*-a*-b* values, UV/VIS spectrometer); conditions: RT, 3 hrs
Protocol: 1 mmol of the substance according to Example 1 (2-methyl-4-oxo-4H-pyran-3-yl 2-(4-dibutylamino-2-hydroxybenzoyl)benzoate) is dissolved in 94 ml of ethylene glycol and 6 ml of water (potassium hydrogenphthalate-buffered, pH=4) with 1 mmol of DL-lysine and stirred at RT for 3 hrs. (=Liquidskin model). The L*-a*-b* values of this solution are subsequently measured using a UV/VIS spectrometer (Varian Cary-100) and compared with the starting values.

[2] = Determination of the protein affinity in the lysine model (HPTLC); conditions: 10 mg in 5 ml THF made up to 10 ml with lysine solution (200 mg/l water), 35° C., HPTLC detection at 254 nm and 366 nm; for reaction with lysine in a Maillard reaction / detectability of starting substance after 1 h: sample after 1 h
Protocol: In each case, 10 mg of the substances according to Example 1 and Example 2 are weighed out into a 10 ml volumetric flask and dissolved in 5 ml of tetrahydrofuran (THF). The volumetric flask is then made up to the mark with a lysine solution in distilled water. The concentration of the lysine solution is 200 mg/I of water. The solution is stirred in the volumetric flask at 35° C. for 24 h. Samples are taken after 1 h and after 24 h. 5 μl of each of these samples are pipetted onto the start zone of an HPTLC silica gel 60 […] plate (Merck Art. 1.05628) using a micropipette. For development of the HPTLC plate, the eluent consisting of THF/heptane in the ratio 75/25 containing 0.1 vol % of formic acid is used. After development, detection is carried out at 254 nm and 366 nm in a CAMAG ATS4, and the Rf values are determined.

[3] = 1 mmol substance + 1 mmol DL-lysine in 94 ml ethylene glycol and 6 ml water (pH=4), compared with starting values

Compound	delta L* [1, 3]	delta a* [1, 3]	delta b* [1, 3]	colour change of lysine ([1]; Liquidskin model)	reaction with lysine in a Maillard reaction / detectability of starting substance after 1 h [2]	reaction with lysine in a Maillard reaction / detectability of starting substance after 24 h ([2]; sample after 24 h)
CCCCN(CCCC)c1ccc(C(=O)c2ccccc2C(=O)Oc2c(C)occc2=O)c(O)c1 [Example 1, 2-methyl-4-oxo-4H-pyran-3-yl 2-(4-dibutylamino-2-hydroxybenzoyl)benzoate]	−4.07	−2.75	+7.83	exhibits a colour change of lysine	completely reacted with lysine	–
COc1ccc(/C=C/C(=O)Oc2c(C)occc2=O)cc1 [Example 2, 2-methyl-4-oxo-4H-pyran-3-yl 2-(E)-3-(4-methoxyphenyl)acrylate]	–	–	–	–	can still be detected	reaction is complete
